Laboratory results reported in US20070049564A1 (Wyeth, priority 2005, published 2007).
Like-named read-outs stand apart in the source and are kept apart here.

Assays:
[1] = tested on: E. faecalis GC 2242; test: MIC, broth microdilution; conditions: Enterococcus faecalis
[2] = tested on: E. coli GC 4560; test: MIC, broth microdilution; conditions: Escherichia coli
[3] = tested on: E. coli; test: Range of MIC for E. coli strains; conditions: Escherichia coli
[4] = tested on: S. aureus GC 6466; test: MIC, broth microdilution; conditions: Staphylococcus aureus
[5] = tested on: E. faecium GC 4556; test: MIC, broth microdilution; conditions: Enterococcus faecium
[6] = tested on: E. coli GC 2233; test: MIC, broth microdilution; conditions: Escherichia coli
[7] = tested on: E. coli GC 1073; test: MIC, broth microdilution; conditions: Escherichia coli
Protocol: (§1) Antimicrobial susceptibility testing. The in vitro activities of the antibiotics are determined by the broth microdilution method as recommended by the National Committee for Clinical Laboratory Standards (NCCLS) (1). Mueller-Hinton II broth (MHBII)(BBL Cockeysville, Md.) is the medium employed in the testing procedures. Microtiter plates containing serial dilutions of each antimicrobial agent are inoculated with each organism to yield the appropriate density (10^5 CFU/ml) in a 100 μl final volume. The plates are incubated for 18-22 hours at 35° C. in ambient air.
Representative compounds were first incubated in mouse serum for an hour prior to the in vitro testing against a panel of selected gram-positive and gram-negative bacteria strains. All compounds were also pre-incubated in water for an hour prior to testing as control. Representative compounds of Formula I were incubated in human serum prior to MIC determination.

[8] = tested on: S. aureus GC 6469; test: MIC, broth microdilution; conditions: Staphylococcus aureus
[9] = tested on: S. typhimurium GC 2172; test: MIC, broth microdilution; conditions: Salmonella enterica, TYPHIMURIUM
[10] = tested on: E. coli GC 2235; test: MIC, broth microdilution; conditions: Escherichia coli
[11] = tested on: S. aureus GC 2216; test: MIC, broth microdilution; conditions: Staphylococcus aureus
[12] = tested on: E. faecium GC 2243; test: MIC, broth microdilution; conditions: Enterococcus faecium
[13] = tested on: S. aureus GC 4536; test: MIC, broth microdilution; conditions: Staphylococcus aureus
[14] = tested on: S. aureus GC 6467; test: MIC, broth microdilution; conditions: Staphylococcus aureus
[15] = tested on: c. albicans GC 3066; test: MIC, broth microdilution; conditions: for MIC: Candida albicans, GC3066, read-out: MINIMAL INHIBITORY CONCENTRATION MIC; for MINIMAL INHIBITORY CONCENTRATION MIC: pre-incubated in Water
[16] = tested on: E. coli GC 2231; test: MIC, broth microdilution; conditions: Escherichia coli
[17] = tested on: Staph.; test: Range of MIC for Staph. strains, including MRSA; conditions: Staphylococcus aureus
[18] = tested on: E. coli GC 6465; test: MIC, broth microdilution; conditions: Escherichia coli
Protocol: as §1
Representative compounds were first incubated in mouse serum for an hour prior to the in vitro testing against a panel of selected gram-positive and gram-negative bacteria strains. All compounds were also pre-incubated in water for an hour prior to testing as control.

[19] = tested on: S. aureus GC 1079; test: MIC, broth microdilution; conditions: Staphylococcus aureus
[20] = tested on: E. coli GC 2270; test: MIC, broth microdilution; conditions: Escherichia coli
[21] = GC2242, read-out: MINIMAL INHIBITORY CONCENTRATION MIC, pre-incubated in Mouse Serum
[22] = GC2242, read-out: MINIMAL INHIBITORY CONCENTRATION MIC, pre-incubated in Water
[23] = GC4560, read-out: MINIMAL INHIBITORY CONCENTRATION MIC, pre-incubated in Mouse Serum
[24] = GC4560, read-out: MINIMAL INHIBITORY CONCENTRATION MIC, pre-incubated in Water
[25] = 20 h, read-out: Range of MIC, E. coli (Mouse Serum)
[26] = read-out: Range of MIC, E. coli (mouse serum)
[27] = GC6466, read-out: MINIMAL INHIBITORY CONCENTRATION MIC, pre-incubated in Mouse Serum
[28] = GC6466, read-out: MINIMAL INHIBITORY CONCENTRATION MIC, pre-incubated in Water
[29] = GC4556, read-out: MINIMAL INHIBITORY CONCENTRATION MIC, pre-incubated in Mouse Serum
[30] = GC4556, read-out: MINIMAL INHIBITORY CONCENTRATION MIC, pre-incubated in Water
[31] = GC2233, read-out: MINIMAL INHIBITORY CONCENTRATION MIC, pre-incubated in Mouse Serum
[32] = GC2233, read-out: MINIMAL INHIBITORY CONCENTRATION MIC, pre-incubated in Water
[33] = GC1073, read-out: MINIMAL INHIBITORY CONCENTRATION MIC, pre-incubated in Mouse Serum
[34] = GC1073, read-out: MINIMAL INHIBITORY CONCENTRATION MIC, pre-incubated in Water
[35] = GC6469, read-out: MINIMAL INHIBITORY CONCENTRATION MIC, pre-incubated in Mouse Serum
[36] = GC6469, read-out: MINIMAL INHIBITORY CONCENTRATION MIC, pre-incubated in Water
[37] = read-out: MINIMAL INHIBITORY CONCENTRATION MIC, pre-incubated in Mouse Serum
[38] = read-out: MINIMAL INHIBITORY CONCENTRATION MIC, pre-incubated in Water
[39] = GC2235, read-out: MINIMAL INHIBITORY CONCENTRATION MIC, pre-incubated in Mouse Serum
[40] = GC2235, read-out: MINIMAL INHIBITORY CONCENTRATION MIC, pre-incubated in Water
[41] = GC2216, read-out: MINIMAL INHIBITORY CONCENTRATION MIC, pre-incubated in Mouse Serum
[42] = GC2216, read-out: MINIMAL INHIBITORY CONCENTRATION MIC, pre-incubated in Water
[43] = GC2243, read-out: MINIMAL INHIBITORY CONCENTRATION MIC, pre-incubated in Mouse Serum
[44] = GC2243, read-out: MINIMAL INHIBITORY CONCENTRATION MIC, pre-incubated in Water
[45] = GC4536, read-out: MINIMAL INHIBITORY CONCENTRATION MIC, pre-incubated in Mouse Serum
[46] = GC4536, read-out: MINIMAL INHIBITORY CONCENTRATION MIC, pre-incubated in Water
[47] = GC6467, read-out: MINIMAL INHIBITORY CONCENTRATION MIC, pre-incubated in Mouse Serum
[48] = GC6467, read-out: MINIMAL INHIBITORY CONCENTRATION MIC, pre-incubated in Water
[49] = GC2231, read-out: MINIMAL INHIBITORY CONCENTRATION MIC, pre-incubated in Mouse Serum
[50] = GC2231, read-out: MINIMAL INHIBITORY CONCENTRATION MIC, pre-incubated in Water
[51] = MRSA, read-out: Range of MIC, Staph (Mouse Serum)
[52] = MRSA, read-out: Range of MIC, Staph (Water)
[53] = MRSA, read-out: Range of MIC, Staph. (mouse serum)
[54] = MRSA, read-out: Range of MIC, Staph. (water)
[55] = GC6465, read-out: MINIMAL INHIBITORY CONCENTRATION MIC, pre-incubated in Mouse Serum
[56] = GC6465, read-out: MINIMAL INHIBITORY CONCENTRATION MIC, pre-incubated in Water
[57] = GC1079, read-out: MINIMAL INHIBITORY CONCENTRATION MIC, pre-incubated in Mouse Serum
[58] = GC1079, read-out: MINIMAL INHIBITORY CONCENTRATION MIC, pre-incubated in Water
[59] = GC2270, read-out: MINIMAL INHIBITORY CONCENTRATION MIC, pre-incubated in Mouse Serum
[60] = GC2270, read-out: MINIMAL INHIBITORY CONCENTRATION MIC, pre-incubated in Water

CCCN(CC(=O)Nc1cc(N(C)C)c2c(c1O)C(=O)C1=C(O)[C@]3(O)C(=O)C(C(N)=O)=C(O)[C@@H](N(C)C)[C@@H]3C[C@@H]1C2)C(=O)OCOC(=O)c1ccsc1 [Example 27, ({[(2-{[(5aR,6aS,7S,10aS)-9-(aminocarbonyl)-4,7-bis(dimethylamino)-1,8,10a,11-tetrahydroxy-10,12-dioxo-5,5a,6,6a,7,10,10a,12-octahydrotetracen-2-yl]amino}-2-oxoethyl)(propyl)amino]carbonyl}oxy)methyl thiophene-3-carboxylate]
0.12 µg/mL: MIC [4, 27] | MIC [12, 43] | MIC [13, 45] | MIC [13, 46]
0.5 to 4 µg/mL: MIC ([17]; read-out: Minimum inhibitory concentration (MIC), Staph (Water))
64 µg/mL: MIC [6, 32] | MIC [10, 40] | MIC [20, 60]
1 µg/mL: MIC [2, 24] | MIC [5, 30] | MIC [8, 35] | MIC [16, 49] | MIC [19, 57]
0.25 to 2 µg/mL: MIC ([17]; read-out: Minimum inhibitory concentration (MIC), Staph (Human Serum))
> 64 µg/mL: MIC [7, 34] | MIC [9, 38] | MIC [15] | MIC [16, 50] | MIC [18, 56]
0.12 to 2 µg/mL: MIC [17, 51] | MIC [17, 52] | MIC [17, 53] | MIC [17, 54]
0.5 µg/mL: MIC [1, 21] | MIC [1, 22] | MIC [5, 29] | MIC [6, 31] | MIC [7, 33] | MIC [10, 39] | MIC [20, 59]
4 to 16 µg/mL: MIC ([3]; read-out: Minimum inhibitory concentration (MIC), E. coli (Human Serum))
4 µg/mL: MIC [9, 37] | MIC [18, 55]
0.5 to 1 µg/mL: MIC [3, 25] | MIC [3, 26]
2 µg/mL: MIC [8, 36] | MIC [14, 47] | MIC [14, 48] | MIC [19, 58]
>64 UG/ML: MINIMAL INHIBITORY CONCENTRATION MIC [15]
0.25 µg/mL: MIC [2, 23] | MIC [4, 28] | MIC [11, 41] | MIC [11, 42] | MIC [12, 44]

CCCN(CC(=O)Nc1cc(N(C)C)c2c(c1O)C(=O)C1=C(O)[C@]3(O)C(=O)C(C(N)=O)=C(O)[C@@H](N(C)C)[C@@H]3C[C@@H]1C2)C(=O)OCOC(=O)c1ccc(C(C)(C)C)cc1 [Example 28, ({[(2-{[(5aR,6aS,7S,10aS)-9-(aminocarbonyl)-4,7-bis(dimethylamino)-1,8,10a,11-tetrahydroxy-10,12-dioxo-5,5a,6,6a,7,10,10a,12-octahydrotetracen-2-yl]amino}-2-oxoethyl)(propyl)amino]carbonyl}oxy)methyl 4-tert-butylbenzoate]
4 to 64 µg/mL: MIC [17, 52] | MIC [17, 54]
> 64 µg/mL: MIC [2, 24] | MIC ([3]; read-out: Range of MIC, E. coli (Water)) | MIC ([3]; read-out: Range of MIC, E. coli (water)) | MIC [6, 32] | MIC [7, 34] | MIC [9, 38] | MIC [10, 40] | MIC [15] | MIC [16, 50] | MIC [18, 56] | MIC [20, 60]
4 µg/mL: MIC [1, 22] | MIC [4, 28] | MIC [8, 35] | MIC [14, 47]
64 µg/mL: MIC [8, 36] | MIC [14, 48] | MIC [19, 58]
0.5 to 4 µg/mL: MIC [17, 51] | MIC [17, 53]
32 µg/mL: MIC [5, 30] | MIC [11, 42] | MIC [13, 46]
1 µg/mL: MIC [16, 49]
8 µg/mL: MIC [9, 37] | MIC [18, 55]
2 µg/mL: MIC [19, 57]
0.5 µg/mL: MIC [1, 21] | MIC [4, 27] | MIC [5, 29] | MIC [6, 31] | MIC [7, 33] | MIC [10, 39] | MIC [11, 41] | MIC [13, 45] | MIC [20, 59]
0.25 µg/mL: MIC [2, 23] | MIC [12, 43] | MIC [12, 44]
>64 UG/ML: MINIMAL INHIBITORY CONCENTRATION MIC [15]
0.25 to 1 µg/mL: MIC [3, 25] | MIC [3, 26]
